Each structure is given as a SMILES string. ≈ marks a conversion by molar mass, not a printed value.

Results on 3 compounds are retold here after ChEMBL document CHEMBL1151270, “Phenolic and triterpene glycosides from the stems of Ilex litseaefolia” (J Nat Prod, 2005).

A short description of the assay: Inhibition of lipase.
A word on the IC50: it is the midpoint of a concentration-inhibition curve. The low end stands for inhibition by little substance, the high end for a need for much substance. With `COc1cc(C(=O)OCc2ccc(O[C@@H]3O[C@H](COC(C)=O)[C@@H](O)[C@H](O)[C@H]3O)c(O)c2)ccc1O` [LITSEAEFOLOSIDE A], the IC50 was > 100 µg/mL.

Compound `COc1cc(C(=O)OCc2ccc(O[C@@H]3O[C@H](COC(=O)/C=C/c4ccc(O)c(O)c4)[C@@H](O)[C@H](O)[C@H]3O)c(O)c2)ccc1O` [LITSEAEFOLOSIDE C] registered an IC50 of 0.31 µg/mL (≈ 0.504 µM).

With `COc1cc(C(=O)OCc2ccc(O[C@@H]3O[C@H](CO)[C@@H](O)[C@H](O)[C@H]3O)c(O)c2)ccc1O` [VANILLOYL CALLERYANIN], the IC50 was > 100 µg/mL.
